# Measurements as given in patent US8575135B2 (Gilead Sciences, Inc., priority 2011, dated 2013).
# Where two headings read alike, the source gives them in different places.
# Legend:
# [1] = test system: stable HCV 2a JFH-1 Rluc replicon cells (L31 present in NS5A); experiment: microbe, parasite or virus in culture; type: cell-based; details: Hepatitis C virus
# [2] = IV and PO single dose pharmacokinetic studies in SD rats; type: in vivo; details: male, Sprague-Dawley, rat, plasma, IV infusion 1 mg/kg vs oral gavage 2 mg/kg, read-out: Rat % F
# Experimental: IV and PO Single Dose Pharmacokinetic Studies in SD Rats: The pharmacokinetics of selected compounds was characterized in male Sprague-Dawley (SD) rats (250-300g). […] The intravenous (IV) dosing vehicle was 5% ethanol, 35% polyethylene glycol 400 (PEG 400) and 60% water pH 2.0. […] Serial blood samples (approximately 0.3 mL each) were collected from jugular vein or other suitable vein at specified time points. […] The blood samples were collected into Vacutainer™ tubes containing EDTA-K3 as the anti-coagulant and were centrifuged at approximately 4° C. to obtain plasma. The plasma samples were stored at −20° C. until analysis by LC/MS/MS. A bioanalytical method utilizing high performance liquid chromatography coupled to tandem mass spectrometry (LC/MS/MS) was developed for analysis of the selected compound in rat plasma. Detection was performed using selected reaction monitoring (SRM); […] Standard curve and quality control samples were prepared in male rat plasma and processed in the same way as the test samples to generate quantitative data. Pharmacokinetic parameters were generated using non-compartmental pharmacokinetic analysis (Phoenix WinNonlin, version 6.3). Values below the lower limit of quantification (LLOQ) were assigned a value of zero if predose and treated as missing thereafter. Area under the curve (AUC) was calculated using the linear trapezoidal rule. The oral bioavailability (% F) was determined by comparison of the area under the curve (AUC) of the compound and/or a metabolite generated in plasma following oral administration to that generated following intravenous administration.
# [3] = test system: NS5A chimeric genotype 2a JFH-1 replicon with genotype 2b MD2b-1 strain NS5A gene (M31 present); experiment: microbe, parasite or virus in culture; type: cell-based, HCV; details: Hepatitis C virus
# In short: (§1)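 Con1-based 3a and 4a chimeras carried a Pi-RLuc reporter and were transiently transfected into Huh-Lunet cells; the JFH-1-based 2b chimera (RLuc-Neo) was used transiently or as stable replicon cells.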
# [4] = test system: NS5A chimeric genotype 2a JFH-1 replicon with genotype 2a J6 strain NS5A gene (M31 present); experiment: microbe, parasite or virus in culture; type: cell-based, HCV; details: Hepatitis C virus
# [5] = test system: NS5A chimeric genotype 1b Con1 replicon with genotype 3a S52 strain NS5A gene; experiment: microbe, parasite or virus in culture; type: cell-based, HCV; details: Hepatitis C virus
# In short: as §1
# [6] = test system: stable HCV 1a RLuc replicon cells (genotype 1a H77 replicon); experiment: microbe, parasite or virus in culture; type: cell-based; details: Hepatitis C virus
# [7] = test system: NS5A chimeric genotype 1b Con1 replicon with genotype 4a ED43 strain NS5A gene; experiment: microbe, parasite or virus in culture; type: cell-based, HCV; details: Hepatitis C virus
# [8] = test system: 1a Pi-Rluc replicon with Q30R in genotype 1a NS5A; experiment: microbe, parasite or virus in culture; type: cell-based, HCV; details: Hepatitis C virus
# In short: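 Q30R introduced by site-directed mutagenesis into genotype 1a Pi-RLuc replicon; RNA transiently transfected into Huh-7-derived cured-51 cells.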
SMILES,EC50 ([1]; read-out: 2a JFH) [nM],EC50 ([1]; read-out: 2a JFH (nM)) [nM],bioavailability [2] [%],EC50 ([3]; read-out: 2b) [nM],EC50 ([3]; read-out: 2b (s) (nM)) [nM],EC50 ([3]; read-out: 2b (t) (nM)) [nM],EC50 ([4]; read-out: 2a J6) [nM],EC50 ([4]; read-out: 2a J6 (s) (nM)) [nM],EC50 ([4]; read-out: 2a Jb (t) (nM)) [nM],EC50 ([5]; read-out: 3a) [nM],EC50 ([5]; read-out: 3a (nM)) [nM],EC50 ([6]; read-out: 1a) [nM],EC50 ([6]; read-out: 1a (nM)) [nM],EC50 ([7]; read-out: 4a) [nM],EC50 ([7]; read-out: 4a (s) (nM)) [nM],EC50 ([7]; read-out: 4a (t) (nM)) [nM],EC50 ([8]; read-out: 1a Q30R) [nM],EC50 ([8]; read-out: 1a Q30R (nM)) [nM]
"COC[C@H]1C[C@@H](c2nc3ccc4cc5c(cc4c3[nH]2)OCc2cc(-c3cnc([C@@H]4C[C@H](C)CN4C(=O)[C@H](NC(=O)OC)c4ccccc4)[nH]3)ccc2-5)N(C(=O)[C@@H](NC(=O)OC)C(C)C)C1 [Example PF, methyl {1-[2-{9-[2-(1-{[(methoxycarbonyl)amino](phenyl)acetyl}-4-methylpyrrolidin-2-yl)-1H-imidazol-5-yl]-1,11-dihydroisochromeno[4′,3′:6,7]naphtho[1,2-d]imidazol-2-yl}-4-(methoxymethyl)pyrrolidin-1-yl]-3-methyl-1-oxobutan-2-yl}carbamate]",< 1,0.014,4.3,< 1,0.117,0.023,< 1,0.127,0.025,< 1,0.072,< 1,0.032,< 1,0.018,0.05,< 1,0.034
"COC[C@H]1C[C@@H](c2ncc(-c3ccc4c(c3)COc3cc5c(ccc6nc([C@@H]7CC[C@H](C)N7C(=O)[C@@H](NC(=O)OC)C(C)C)[nH]c65)cc3-4)[nH]2)N(C(=O)[C@H](NC(=O)OC)c2ccccc2)C1 [Example PY, Methyl {(2S)-1-[(2S,5S)-2-(9-{2-[(2S,4S)-1-{(2R)-2-[(methoxycarbonyl)amino]-2-phenylacetyl}-4-(methoxymethyl)pyrrolidin-2-yl]-1H-imidazol-5-yl}-1,11-dihydroisochromeno[4′,3′:6,7]naphtho[1,2-d]imidazol-2-yl)-5-methylpyrrolidin-1-yl]-3-methyl-1-oxobutan-2-yl}carbamate]",< 1,0.006,27.7,< 1,0.03,0.007,< 1,0.098,0.009,< 1,0.017,< 1,0.012,< 1,0.018,–,< 1,0.013
"COC[C@H]1C[C@@H](c2ncc(-c3ccc4c(c3)COc3cc5c(ccc6nc([C@@H]7C[C@H](C)CN7C(=O)[C@@H](NC(=O)OC)C(C)C)[nH]c65)cc3-4)[nH]2)N(C(=O)[C@H](NC(=O)OC)c2ccccc2)C1 [Example NM, Methyl {(1R)-2-[(2S,4S)-2-(5-{2-[(2S,4S)-1-{(2S)-2-[(methoxycarbonyl)amino]-3-methylbutanoyl}-4-methylpyrrolidin-2-yl]-1,11-dihydroisochromeno[4′,3′:6,7]naphtho[1,2-d]imidazol-9-yl}-1H-imidazol-2-yl)-4-(methoxymethyl)pyrrolidin-1-yl]-2-oxo-1-phenylethyl}carbamate]",< 1,0.006,6.93,< 1,–,0.013,< 1,–,0.012,< 1,0.024,< 1,0.011,–,–,–,< 1,0.028
"COC[C@H]1C[C@@H](c2nc3c([nH]2)-c2cc4c(cc2CC3)-c2ccc(-c3cnc([C@@H]5CC[C@H](C)N5C(=O)[C@@H](NC(=O)OC)C(C)C)[nH]3)cc2CO4)N(C(=O)[C@H](NC(=O)OC)c2ccccc2)C1 [Example OP, Methyl {(1R)-2-[(2S,4S)-2-(9-{2-[(2S,5S)-1-{(2S)-2-[(methoxycarbonyl)amino]-3-methylbutanoyl}-5-methylpyrrolidin-2-yl]-1H-imidazol-5-yl}-1,4,5,11-tetrahydroisochromeno[4′,3′:6,7]naphtho[1,2-d]imidazol-2-yl)-4-(methoxymethyl)pyrrolidin-1-yl]-2-oxo-1-phenylethyl}carbamate]",< 1,0.008,15.1,< 1,0.007,0.011,< 1,–,0.018,< 1,0.027,< 1,0.013,–,–,–,< 1,0.026
CC[C@H](C)[C@H](NC(=O)OC)C(=O)N1[C@@H](C)CC[C@H]1c1ncc(-c2ccc3c(c2)COc2cc4c(ccc5nc([C@@H]6C[C@H](COC)CN6C(=O)[C@H](NC(=O)OC)c6ccccc6)[nH]c54)cc2-3)[nH]1 [Example OW],< 1,0.006,13.3,< 1,–,0.008,< 1,–,0.009,< 1,0.013,< 1,0.009,–,–,–,< 1,0.019
COC(=O)N[C@H](C(=O)N1[C@@H](C)CC[C@H]1c1ncc(-c2ccc3c(c2)COc2cc4c(ccc5nc([C@@H]6C[C@H](C)CN6C(=O)[C@H](NC(=O)OC)c6ccccc6)[nH]c54)cc2-3)[nH]1)C(C)C [Compound 617],< 1,0.004,14.4,< 1,0.011,0.013,< 1,–,0.032,< 1,0.019,< 1,0.009,–,–,–,< 1,0.024
"COC[C@H]1C[C@@H](c2ncc(-c3ccc4c(c3)COc3cc5c(cc3-4)CCc3nc([C@@H]4CC[C@H](C)N4C(=O)[C@@H](NC(=O)OC)C(C)C)[nH]c3-5)[nH]2)N(C(=O)[C@H](NC(=O)OC)c2ccccc2)C1 [Example OH, methyl {(1R)-2-[(2S,4S)-2-(5-{2-[(2S,5S)-1-{(2S)-2-[(methoxycarbonyl)amino]-3-methylbutanoyl}-5-methylpyrrolidin-2-yl]-1,4,5,11-tetrahydroisochromeno[4′,3′:6,7]naphtho[1,2-d]imidazol-9-yl}-1H-imidazol-2-yl)-4-(methoxymethyl)pyrrolidin-1-yl]-2-oxo-1-phenylethyl}carbamate]",< 1,0.007,22.7,< 1,0.022,0.023,< 1,–,0.054,< 1,0.026,< 1,0.016,–,–,–,< 1,0.031
"COC[C@H]1C[C@@H](c2nc3ccc4cc5c(cc4c3[nH]2)OCc2cc(-c3cnc([C@@H]4CC[C@H](C)N4C(=O)[C@@H](NC(=O)OC)C(C)C)[nH]3)ccc2-5)N(C(=O)[C@@H](NC(=O)OC)[C@@H](C)OC)C1 [Example OM, Methyl {(2S)-1-[(2S,4S)-2-(5-{2-[(2S,5S)-1-{(2S,3R)-3-methoxy-2-[(methoxycarbonyl)amino]butanoyl}-4-(methoxymethyl)pyrrolidin-2-yl]-1,11-dihydroisochromeno[4′,3′:6,7]naphtho[1,2-d]imidazol-9-yl}-1H-imidazol-2-yl)-5-methylpyrrolidin-1-yl]-3-methyl-1-oxobutan-2-yl}carbamate]",< 1,0.009,12.2,< 1,0.054,0.053,< 1,–,0.045,< 1,0.035,< 1,0.014,–,–,–,< 1,0.035
